From US8802597B2, “Herbicidal pyrimidines” (E I du Pont de Nemours and Company, priority 2003, dated 2014)

What was measured:
Type in all cases: in vivo
[1] = tested on: duck salad (Heteranthera limosa); test: Test B flooded paddy test; settings: Flood, 1000 g ai/ha; scale 0 to 100
Method in brief: (§1)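 Visual injury scoring (0 = no effect, 100 = complete control) versus controls made 13 to 15 days after treatment in the greenhouse. Test species were grown in flooded paddy to the 2-leaf stage: rice, barnyardgrass, umbrella sedge, duck salad.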

[2] = tested on: umbrella sedge (Cyperus difformis); test: Test B flooded paddy test; settings: Flood, 1000 g ai/ha; scale 0 to 100
Method in brief: as §1

[3] = tested on: barnyardgrass (Echinochloa crus-galli); test: Test B flooded paddy test; settings: Flood, 1000 g ai/ha; scale 0 (no effect) to 100 (complete control)
Method in brief: as §1

rice (Oryza sativa) = test: Test B flooded paddy test; settings: Flood, 1000 g ai/ha; scale 0 to 100
Method in brief: as §1

[4] = tested on: lambsquarters (Chenopodium album); test: Test B pre/postemergence
Method in brief: (§2)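 Test chemicals in a non-phytotoxic solvent mixture with surfactant were applied preemergence to planted seeds and postemergence to plants 2 to 18 cm tall (1- to 4-leaf stage). After 13 to 15 days in a greenhouse, injury was visually rated against untreated controls on a 0 to 100 scale.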

corn (Zea mays) = test: Test B pre/postemergence
Method in brief: as §2

[5] = tested on: wheat (Triticum aestivum); test: Test B pre/postemergence
Method in brief: as §2

[6] = tested on: cocklebur (Xanthium strumarium); test: Test B pre/postemergence
Method in brief: as §2

[7] = tested on: velvetleaf (Abutilon theophrasti); test: Test B pre/postemergence
Method in brief: as §2

[8] = tested on: morningglory (Ipomoea coccinea); test: Test B pre/postemergence
Method in brief: as §2

[9] = tested on: barnyardgrass (Echinochloa crus-galli); test: Test B pre/postemergence
Method in brief: as §2

[10] = tested on: giant foxtail (Setaria faberii); test: Test B pre/postemergence
Method in brief: as §2

[11] = tested on: Surinam grass (Brachiaria decumbens); test: Test B pre/postemergence
Method in brief: as §2

[12] = tested on: pigweed (Amaranthus retroflexus); test: Test B pre/postemergence
Method in brief: as §2

[13] = tested on: crabgrass (Digitaria sanguinalis); test: Test B pre/postemergence
Method in brief: as §2

[14] = tested on: blackgrass (Alopecurus myosuroides); test: Test B postemergence; settings: for Blackgrass plant response rating: 125 g ai/ha, scale 0 to 100 (0 no effect, 100 complete control); for Plant response rating, Blackgrass: 500 g ai/ha, scale 0 to 100
Method in brief: as §2

wild oat (Avena fatua) = test: Test B postemergence; settings: for Oat, Wild plant response rating: 125 g ai/ha, scale 0 to 100 (0 no effect, 100 complete control); for Plant response rating, Oat, Wild: 500 g ai/ha, scale 0 to 100
Method in brief: as §2

[15] = Postemergence, 125 g ai/ha, scale 0 to 100 (0 no effect, 100 complete control)
[16] = Postemergence, 500 g ai/ha, scale 0 to 100
[17] = Preemergence, 500 g ai/ha, scale 0 to 100 (0 no effect, 100 complete control)
[18] = Preemergence, 125 g ai/ha, scale 0 to 100 (0 no effect, 100 complete control)

COC(=O)CNc1nc(C2CC2)nc(C(=O)OC)c1Br [Compound 10]
Plant response rating, Ducksalad [1]: 0 | Plant response rating, Sedge, Umbrella [2]: 0 | Plant response rating, Barnyardgrass [3]: 0 | Plant response rating, Rice (rice (Oryza sativa)): 0 | Lambsquarters plant response rating [4, 15]: 80 | Plant response rating, Lambsquarters [4, 16]: 90 | Lambsquarters plant response rating [4, 17]: 90 | Corn plant response rating (corn (Zea mays); [15]): 0 | Plant response rating, Corn (corn (Zea mays); [16]): 0 | Plant response rating, Corn (corn (Zea mays); [18]): 0 | Corn plant response rating (corn (Zea mays); [17]): 0 | Wheat plant response rating [5, 15]: 0 | Plant response rating, Wheat [5, 16]: 0 | Plant response rating, Wheat [5, 18]: 0 | Wheat plant response rating [5, 17]: 0 | Cocklebur plant response rating [6, 15]: 60 | Plant response rating, Cocklebur [6, 16]: 70 | Plant response rating, Cocklebur [6, 18]: 80 | Cocklebur plant response rating [6, 17]: 90 | Velvetleaf plant response rating [7, 15]: 50 | Plant response rating, Velvetleaf [7, 16]: 80 | Plant response rating, Velvetleaf [7, 18]: 80 | Velvetleaf plant response rating [7, 17]: 90 | Morningglory plant response rating [8, 15]: 80 | Plant response rating, Morningglory [8, 16]: 80 | Plant response rating, Morningglory [8, 18]: 80 | Morningglory plant response rating [8, 17]: 90 | Barnyardgrass plant response rating [9, 15]: 0 | Plant response rating, Barnyardgrass [9, 16]: 10 | Plant response rating, Barnyardgrass [9, 18]: 20 | Barnyardgrass plant response rating [9, 17]: 50 | Foxtail, Giant plant response rating [10, 15]: 0 | Plant response rating, Foxtail, Giant [10, 16]: 10 | Plant response rating, Foxtail, Giant [10, 18]: 0 | Foxtail, Giant plant response rating [10, 17]: 20 | Surinam Grass plant response rating [11, 15]: 10 | Plant response rating, Surinam Grass [11, 16]: 10 | Plant response rating, Surinam Grass [11, 18]: 0 | Surinam Grass plant response rating [11, 17]: 0 | Pigweed plant response rating [12, 15]: 80 | Plant response rating, Pigweed [12, 16]: 90 | Plant response rating, Pigweed [12, 18]: 80 | Pigweed plant response rating [12, 17]: 90 | Crabgrass plant response rating [13, 15]: 30 | Plant response rating, Crabgrass [13, 16]: 40 | Plant response rating, Crabgrass [13, 18]: 20 | Crabgrass plant response rating [13, 17]: 60 | Blackgrass plant response rating [14]: 0 | Plant response rating, Blackgrass [14]: 0 | Oat, Wild plant response rating (wild oat (Avena fatua)): 0 | Plant response rating, Oat, Wild (wild oat (Avena fatua)): 10

COCc1nc(C2CC2)nc(N)c1Br [Compound 11]
Plant response rating, Ducksalad [1]: 70 | Plant response rating, Sedge, Umbrella [2]: 20 | Plant response rating, Barnyardgrass [3]: 0 | Plant response rating, Rice (rice (Oryza sativa)): 0 | Lambsquarters plant response rating [4, 15]: 90 | Plant response rating, Lambsquarters [4, 16]: 100 | Plant response rating, Lambsquarters [4, 18]: 100 | Lambsquarters plant response rating [4, 17]: 100 | Corn plant response rating (corn (Zea mays); [15]): 0 | Plant response rating, Corn (corn (Zea mays); [16]): 0 | Plant response rating, Corn (corn (Zea mays); [18]): 0 | Corn plant response rating (corn (Zea mays); [17]): 0 | Wheat plant response rating [5, 15]: 0 | Plant response rating, Wheat [5, 16]: 40 | Plant response rating, Wheat [5, 18]: 0 | Wheat plant response rating [5, 17]: 50 | Cocklebur plant response rating [6, 15]: 80 | Plant response rating, Cocklebur [6, 16]: 90 | Plant response rating, Cocklebur [6, 18]: 80 | Cocklebur plant response rating [6, 17]: 90 | Velvetleaf plant response rating [7, 15]: 60 | Plant response rating, Velvetleaf [7, 16]: 80 | Plant response rating, Velvetleaf [7, 18]: 80 | Velvetleaf plant response rating [7, 17]: 90 | Morningglory plant response rating [8, 15]: 80 | Plant response rating, Morningglory [8, 16]: 100 | Plant response rating, Morningglory [8, 18]: 80 | Morningglory plant response rating [8, 17]: 90 | Barnyardgrass plant response rating [9, 15]: 20 | Plant response rating, Barnyardgrass [9, 16]: 90 | Plant response rating, Barnyardgrass [9, 18]: 0 | Barnyardgrass plant response rating [9, 17]: 10 | Foxtail, Giant plant response rating [10, 15]: 10 | Plant response rating, Foxtail, Giant [10, 16]: 50 | Plant response rating, Foxtail, Giant [10, 18]: 10 | Foxtail, Giant plant response rating [10, 17]: 70 | Surinam Grass plant response rating [11, 15]: 20 | Plant response rating, Surinam Grass [11, 16]: 50 | Plant response rating, Surinam Grass [11, 18]: 10 | Surinam Grass plant response rating [11, 17]: 70 | Pigweed plant response rating [12, 15]: 80 | Plant response rating, Pigweed [12, 16]: 90 | Plant response rating, Pigweed [12, 18]: 80 | Pigweed plant response rating [12, 17]: 90 | Crabgrass plant response rating [13, 15]: 30 | Plant response rating, Crabgrass [13, 16]: 70 | Plant response rating, Crabgrass [13, 18]: 30 | Crabgrass plant response rating [13, 17]: 80 | Blackgrass plant response rating [14]: 20 | Plant response rating, Blackgrass [14]: 60 | Oat, Wild plant response rating (wild oat (Avena fatua)): 0 | Plant response rating, Oat, Wild (wild oat (Avena fatua)): 10

CCOC(=O)Cc1nc(C2CC2)nc(N)c1Br [Compound 12]
Plant response rating, Ducksalad [1]: 20 | Plant response rating, Sedge, Umbrella [2]: 0 | Plant response rating, Barnyardgrass [3]: 0 | Plant response rating, Rice (rice (Oryza sativa)): 20 | Lambsquarters plant response rating [4, 15]: 60 | Plant response rating, Lambsquarters [4, 16]: 80 | Plant response rating, Lambsquarters [4, 18]: 90 | Lambsquarters plant response rating [4, 17]: 100 | Corn plant response rating (corn (Zea mays); [15]): 0 | Plant response rating, Corn (corn (Zea mays); [16]): 0 | Plant response rating, Corn (corn (Zea mays); [18]): 0 | Corn plant response rating (corn (Zea mays); [17]): 30 | Wheat plant response rating [5, 15]: 0 | Plant response rating, Wheat [5, 16]: 0 | Plant response rating, Wheat [5, 18]: 30 | Wheat plant response rating [5, 17]: 60 | Cocklebur plant response rating [6, 15]: 40 | Plant response rating, Cocklebur [6, 16]: 70 | Plant response rating, Cocklebur [6, 18]: 80 | Cocklebur plant response rating [6, 17]: 90 | Velvetleaf plant response rating [7, 15]: 20 | Plant response rating, Velvetleaf [7, 16]: 60 | Plant response rating, Velvetleaf [7, 18]: 80 | Velvetleaf plant response rating [7, 17]: 90 | Morningglory plant response rating [8, 15]: 60 | Plant response rating, Morningglory [8, 16]: 80 | Plant response rating, Morningglory [8, 18]: 70 | Morningglory plant response rating [8, 17]: 90 | Barnyardgrass plant response rating [9, 15]: 0 | Plant response rating, Barnyardgrass [9, 16]: 40 | Plant response rating, Barnyardgrass [9, 18]: 50 | Barnyardgrass plant response rating [9, 17]: 80 | Foxtail, Giant plant response rating [10, 15]: 0 | Plant response rating, Foxtail, Giant [10, 16]: 30 | Plant response rating, Foxtail, Giant [10, 18]: 20 | Foxtail, Giant plant response rating [10, 17]: 50 | Surinam Grass plant response rating [11, 15]: 0 | Plant response rating, Surinam Grass [11, 16]: 0 | Plant response rating, Surinam Grass [11, 18]: 0 | Pigweed plant response rating [12, 15]: 50 | Plant response rating, Pigweed [12, 16]: 80 | Plant response rating, Pigweed [12, 18]: 80 | Pigweed plant response rating [12, 17]: 90 | Crabgrass plant response rating [13, 15]: 10 | Plant response rating, Crabgrass [13, 16]: 30 | Plant response rating, Crabgrass [13, 18]: 20 | Crabgrass plant response rating [13, 17]: 70 | Blackgrass plant response rating [14]: 0 | Plant response rating, Blackgrass [14]: 0 | Oat, Wild plant response rating (wild oat (Avena fatua)): 0 | Plant response rating, Oat, Wild (wild oat (Avena fatua)): 0

COC(=O)Cc1nc(C2CC2)nc(N)c1Br [Compound 13]
Plant response rating, Ducksalad [1]: 0 | Plant response rating, Sedge, Umbrella [2]: 0 | Plant response rating, Barnyardgrass [3]: 0 | Plant response rating, Rice (rice (Oryza sativa)): 0 | Lambsquarters plant response rating [4, 15]: 60 | Plant response rating, Lambsquarters [4, 16]: 70 | Plant response rating, Lambsquarters [4, 18]: 90 | Lambsquarters plant response rating [4, 17]: 100 | Corn plant response rating (corn (Zea mays); [15]): 0 | Plant response rating, Corn (corn (Zea mays); [16]): 0 | Corn plant response rating (corn (Zea mays); [17]): 30 | Wheat plant response rating [5, 15]: 0 | Plant response rating, Wheat [5, 16]: 0 | Plant response rating, Wheat [5, 18]: 40 | Wheat plant response rating [5, 17]: 60 | Cocklebur plant response rating [6, 15]: 10 | Plant response rating, Cocklebur [6, 16]: 40 | Plant response rating, Cocklebur [6, 18]: 90 | Cocklebur plant response rating [6, 17]: 100 | Velvetleaf plant response rating [7, 15]: 40 | Plant response rating, Velvetleaf [7, 16]: 50 | Plant response rating, Velvetleaf [7, 18]: 80 | Velvetleaf plant response rating [7, 17]: 90 | Morningglory plant response rating [8, 15]: 50 | Plant response rating, Morningglory [8, 16]: 70 | Plant response rating, Morningglory [8, 18]: 90 | Morningglory plant response rating [8, 17]: 100 | Barnyardgrass plant response rating [9, 15]: 0 | Plant response rating, Barnyardgrass [9, 16]: 10 | Plant response rating, Barnyardgrass [9, 18]: 40 | Barnyardgrass plant response rating [9, 17]: 80 | Foxtail, Giant plant response rating [10, 15]: 10 | Plant response rating, Foxtail, Giant [10, 16]: 20 | Plant response rating, Foxtail, Giant [10, 18]: 20 | Foxtail, Giant plant response rating [10, 17]: 40 | Surinam Grass plant response rating [11, 15]: 0 | Plant response rating, Surinam Grass [11, 16]: 0 | Plant response rating, Surinam Grass [11, 18]: 0 | Pigweed plant response rating [12, 15]: 50 | Plant response rating, Pigweed [12, 16]: 70 | Plant response rating, Pigweed [12, 18]: 80 | Pigweed plant response rating [12, 17]: 90 | Crabgrass plant response rating [13, 15]: 20 | Plant response rating, Crabgrass [13, 16]: 30 | Plant response rating, Crabgrass [13, 18]: 50 | Crabgrass plant response rating [13, 17]: 70 | Blackgrass plant response rating [14]: 10 | Plant response rating, Blackgrass [14]: 20 | Oat, Wild plant response rating (wild oat (Avena fatua)): 0 | Plant response rating, Oat, Wild (wild oat (Avena fatua)): 0
